Experimental findings from patent publication US6599917B1, “Quinuclidine compounds and drugs containing the same as the active ingredient” (priority 1999, dated 2003) are described below.

The first assay has as its system cholesterol biosynthesis. In words: Measurement of cholesterol biosynthesis inhibitive activity in a rat. Format: in vivo. The note with it: 2 h; male SD rat, oral, dose 2 mg/kg, inhibition rate to control group. The protocol: Measurement of Cholesterol Biosynthesis Inhibitive Activity in a Rat
(I) An SPF grade male SD rat (4 weeks age, SLC) was bred for more than one week in a day-night-reversal room and subjected to an experiment made in the daytime. The compound dissolved in a 2% Tween 80 solution was administered (5 ml/kg) to the rat using an oral sonde. After one hour, a [1-^14C]Acetic acid, sodium salt (1.67-2.22 GBq/mmol, 37 MBq/ml, NEN) prepared by diluting to 1.85 MBq/ml by using physiological saline was intraabdominally administered (300 μ1/animal). After one hour, the rat was anesthetized by diethyl ether to carry out exsanguination from the aorta abdominalis. The collected blood was centrifuged at 3000 rpm for 10 minutes to prepare blood plasma.
(II) 1 ml of 4N KOH and 1 ml of ethanol were added to 2 ml of the blood plasma, which was then incubated at 65° C. for one hour and there after, 3 ml of petroleum ether was added. The plasma was shaken for 30 minutes. After the water phase was separated from the organic phase by centrifugation, it was frozen at −80° C. and the radiative activity of the organic phase was measured using a liquid scintillation counter. Or the organic phase was evaporated to dryness using nitrogen gas and the residue was dissolved as a marker in 25 µl of chloroform containing squalene, farnesol and cholesterol. This sample was applied to a TCL plate (Merck) and developed using toluene and isopropyl ether (1:1) for 15 to 20 minutes. A band of cholesterol was cut from the plate to measure the radiative activity by using a liquid scintillation counter. The cholesterol biosynthesis inhibition activity was expressed by an inhibition rate (%) to a control group.
For `CO[C@@H]1CN(c2ccc(C#C[C@@]3(O)CN4CCC3CC4)c(Cc3ccccc3)n2)C[C@H]1OC` [Example 104, (3R)-3-[2-Benzyl-6-[(3R,4R)-3,4-dimethoxypyrrolidine-1-yl)-3-pyridyl]ethynyl-3-quinuclidinol], at 2 mg/kg the inhibition in vivo was 88%.

The assay is the same for the next values; noted with them: 2 h; male SD rat, oral, dose 3 mg/kg, inhibition rate to control group.
As for `COCCCNc1ccc(C#CC2(O)CN3CCC2CC3)c(Cc2ccccc2)n1` (stereo not drawn) [Example 11, 3-[2-Benzyl-6-(3-methoxypropylamino)-3-pyridyl)ethynyl-3-quinuclidinol], the inhibition in vivo (usually the drop in the measured response relative to a control, in per cent) at 3 mg/kg worked out at 72%.

Compound `COCCOc1ccc(C#CC2(O)CN3CCC2CC3)c(Cc2ccccc2)n1` (stereo not drawn) [Example 12, 3-[2-Benzyl-6-(2-methoxyethyloxy)-3-pyridyl)ethynyl-3-quinuclidinol] yielded an inhibition in vivo at 3 mg/kg of 78%.

For the compound `O=C1[C@H](O)CCN1c1ccc(C#C[C@@]2(O)CN3CCC2CC3)c(Cc2ccccc2)n1` [Example 142, (3R)-3-[2-Benzyl-6-[(3R)-3-hydroxy-2-pyrrolidinone-1-yl]-3-pyridyl]ethynyl-3-quinuclidinol], the inhibition in vivo at 3 mg/kg was 82%.

In turn, `CO[C@@H]1CN(c2ccc(C#C[C@@]3(O)CN4CCC3CC4)c(Cc3ccccc3)n2)C(=O)[C@@H]1OC` [Example 123, (3R)-3-[2-Benzyl-6-[(3R,4R)-3,4-dimethoxy-2-pyrrolidinone-1-yl]-3-pyridyl]ethynyl-3-quinuclidinol] returned an inhibition in vivo at 3 mg/kg of 86%.

Compound `COCCOc1ccc(C#C[C@@]2(O)CN3CCC2CC3)c(Cc2ccccc2)n1` [Example 147, (3R)-3-[2-Benzyl-6-(2-methoxyethyl)oxy-3-pyridyl]ethynyl-3-quinuclidinol] registered an inhibition in vivo at 3 mg/kg of 87%.

With `COCCCOc1ccc(C#CC2(O)CN3CCC2CC3)c(Cc2ccccc2)n1` (stereo not drawn) [Example 13, 3-[2-Benzyl-6-(3-methoxypropyloxy)-3-pyridyl]ethynyl-3-quinuclidinol], the inhibition in vivo at 3 mg/kg stood at 87%.

The compound `COCCOc1cc(Cc2ccccc2)c(C#CC2(O)CN3CCC2CC3)cn1` (stereo not drawn) [Example 6, 3-[4-Benzyl-2-(2-methoxyethoxy)-5-pyridyl]ethynyl-3-quinuclidinol] showed an inhibition in vivo at 3 mg/kg of 73%.

The same assay, now with this note: male SD rat, oral, dose 3 mg/kg, inhibition rate to control group.
With `C[C@H](NC(=O)OC(C)(C)C)C(=O)OCCCOc1ccc(C#CC2(O)CN3CCC2CC3)c(Cc2ccccc2)n1` (stereo partly drawn) [Example 169, 3-[2-Benzyl-6-[3-[N-(tert-butoxycarbonyl)aranyloxy]propyl]oxy-3-pyridyl]ethynyl-3-quinuclidinol], the “Cholesterol biosynthesis inhibitive activity inhibition (%)” value worked out at 92%.

For `COC(=O)CCC(=O)OCCCOc1ccc(C#CC2(O)CN3CCC2CC3)c(Cc2ccccc2)n1` (stereo not drawn) [Example 168, 3-[2-Benzyl-6-[3-(3-methoxycarbonylpropanoyloxy)propyl]oxy-3-pyridyl]ethynyl-3-quinclidinol], the “Cholesterol biosynthesis inhibitive activity inhibition (%)” value is listed as 89%.

The next assay has as its target T1, squalene synthesizing enzyme (Rattus norvegicus, UniProt Q02769).
T1 construct: The liver was excised from a male Spraugue-Dawly rat; from tissue; host or cells: liver microsome fraction of male Sprague-Dawley rat (8 to 9 weeks)
T1 sequence (Q02769 1-416): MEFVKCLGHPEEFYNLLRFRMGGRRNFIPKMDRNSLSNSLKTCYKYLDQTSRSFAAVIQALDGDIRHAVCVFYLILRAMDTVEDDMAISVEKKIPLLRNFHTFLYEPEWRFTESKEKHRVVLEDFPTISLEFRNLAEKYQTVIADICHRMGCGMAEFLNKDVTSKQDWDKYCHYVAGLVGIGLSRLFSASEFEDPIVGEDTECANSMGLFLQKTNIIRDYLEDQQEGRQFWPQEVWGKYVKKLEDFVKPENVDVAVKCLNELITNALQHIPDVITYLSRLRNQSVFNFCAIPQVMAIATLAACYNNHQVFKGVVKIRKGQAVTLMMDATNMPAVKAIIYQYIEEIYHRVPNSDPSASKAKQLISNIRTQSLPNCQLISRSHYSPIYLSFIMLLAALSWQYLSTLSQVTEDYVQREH
In words: Measurement of squalene synthesizing enzyme inhibitive activity by using a rat liver microsome. Format: biochemical. The note with it: [3H]-farnesylpyrophosphoric acid. The method, then:
Measurement of Squalene Synthesizing Enzyme Inhibitive Activity by Using a Rat Liver Microsome
(I) The reaction was run on a scale of 500 μ1. 200 µl of a solution containing 125 mM tris-hydrochloric acid (pH: 7.3), 2.5 mM magnesium chloride, 5 mM potassium fluoride and 10 mM reduction type nicotinamidoadenine dinucleotide phosphoric acid, 100 µl of the specimen solution with a 5-fold concentration, 100 µl of distilled water and 50 µl of 0.4 to 1 mg/ml rat liver microsome prepared by the following method were mixed.
(II) The above mixture was pre-incubated at 37° C. for 10 minutes and thereafter, 50 µl of 100 μM [^3H]-farnesylpyrophosphoric acid (30 mCi/mmol, NEN) was added to the mixture to start a reaction. The reaction was continued at 37° C. for 10 minutes. 1 ml of ethanol was added to the resulting mixture to terminate the reaction and then 1 ml of distilled water and 3 ml of petroleum ether were added to the reaction solution, which was then shaken for 30 minutes. The water phase was separated from the oil phase, the water phase was frozen at −70° C. in dry ice/methanol and the radiative activity of the organic phase was measured using a liquid scintillator. Or the organic phase was evaporated to dryness using nitrogen gas and the residue was dissolved as a marker in 25 µl of chloroform containing squalene, farnesol and cholesterol. This sample was spotted on a TCL plate (Merck) and developed using heptane for 15 to 20 minutes. A band of squalene was cut from the plate to measure the radiative activity by using a liquid scintillation counter. The data was expressed by a concentration (IC50) at which 50% of the radiative activity of a control group was inhibited.
Method of the Preparation of a Rat Liver Microsome
The following operations were all carried out on ice and the centrifugation was performed at 4° C. The liver was excised from a male Spraugue-Dawly rat (hereinafter referred to as SD rat) (8 to 9 weeks age) and perfused with 1.15% potassium chloride to remove the blood. Then, the liver was minced using a forceps and the minced liver was homogenized using a Teflon homogenizer. The resulting sample was centrifuged at 16000×g twice for 15 minutes. The supernatant was further centrifuged at 105000×g for 60 minutes. The obtained deposit was determined as a microsome fraction, which was then suspended in a 25 mM tris-hydrochloric acid solution. The concentration of protein was measured quantitatively by a Bradford method and the concentration of protein was adjusted to 20 mg/ml by using the same solution. The resulting solution was stored at […].
Regarding `OC1(C#Cc2cnc(-c3ccccn3)cc2Cc2ccccc2)CN2CCC1CC2` (stereo not drawn) [Example 2, 3-[4-Benzyl-2-(2-pyridyl)-5-pyridyl]ethynyl-3-quinuclidinol], the IC50 (commonly the concentration at which inhibition is half-maximal) came out at 20 nM. This lies in the double-digit nanomolar range.

Take `OC1(C#Cc2cnc(-c3ccc4c(c3)OCO4)cc2Cc2ccccc2)CN2CCC1CC2` (stereo not drawn) [Example 1, 3-[4-Benzyl-2-(3,4-methylenedioxyphenyl)-5-pyridyl]ethynyl-3-quinuclidinol]: the IC50 stood at 10 nM. This IC50 is about 2-fold lower than that of the compound before.

With `CO[C@@H]1CCN(c2ccc(C#C[C@@]3(O)CN4CCC3CC4)c(Cc3ccccc3)n2)C1=O` [Example 144, (3R)-3-[2-Benzyl-6-[(3R)-3-methoxy-2-pyrrolidinone-1-yl]-3-pyridyl]ethynyl-3-quinuclidinol], the IC50 was 2.6 nM.

Regarding `O=C1[C@H](O)CCN1c1ccc(C#C[C@@]2(O)CN3CCC2CC3)c(Cc2ccccc2)n1` [Example 142, (3R)-3-[2-Benzyl-6-[(3R)-3-hydroxy-2-pyrrolidinone-1-yl]-3-pyridyl]ethynyl-3-quinuclidinol], it took 5 nM to reach half-maximal inhibition (IC50).

Compound `O[C@]1(C#Cc2cnc(-c3ccc4c(c3)OCO4)cc2Cc2ccccc2)CN2CCC1CC2` [Example 180, (3R)-3-[4-Benzyl-2-(3,4-methylenedioxyphenyl)-5-pyridyl]ethynyl-3-quinuclidinol] gave a concentration for half-maximal inhibition (IC50) of 6.3 nM.

As to `COC1CCN(c2ccc(C#CC3(O)CN4CCC3CC4)c(Cc3ccccc3)n2)CC1` (stereo not drawn) [Example 9, 3-[2-Benzyl-6-(4-methoxypiperidino)-3-pyridyl)ethynyl-3-quinuclidinol], the IC50 amounted to 34 nM.

For the compound `CO[C@@H]1CN(c2ccc(C#C[C@@]3(O)CN4CCC3CC4)c(Cc3ccccc3)n2)C[C@H]1O` [Example 10, (3R)-3-[2-Benzyl-6-[(3R,4R)-3-hydroxy-4-methoxypyrrolidine-1-yl]-3-pyridyl)ethynyl-3-quinuclidinol], the IC50 stood at 2 nM.

With “3-[4-Benzyl-2-(3-pyridyl)-5-pyridyl]ethynyl-3-quinuclidinol [Example 18]”, the midpoint of inhibition, the IC50, lay at 25 nM.

Take `O[C@]1(C#Cc2cc(Cl)c(N3CCC4(C3)OCCO4)nc2Cc2ccccc2)CN2CCC1CC2` [Example 119, (3R)-3-[2-Benzyl-5-chloro-6-(3,3-ethylenedioxypyrrolidine-1-yl)-3-pyridyl]ethynyl-3-quinuclidinol]: inhibition was half-maximal at 3.9 nM (IC50).

`OC1(C#Cc2cnc(-c3ccc4c(c3)OCO4)nc2Cc2ccccc2)CN2CCC1CC2` (stereo not drawn) [Example 19, 3-[4-Benzyl-2-(3,4-methylenedioxyphenyl)-5-pyrimidyl]ethynyl-3-quinuclidinol]: the IC50 amounted to 10 nM. This IC50 lies about 2.6-fold higher than the previous one.

Take `CO[C@@H]1CN(c2ccc(C#C[C@@]3(O)CN4CCC3CC4)c(Cc3ccccc3)n2)C[C@H]1OC` [Example 104, (3R)-3-[2-Benzyl-6-[(3R,4R)-3,4-dimethoxypyrrolidine-1-yl)-3-pyridyl]ethynyl-3-quinuclidinol]: the midpoint of inhibition, the IC50, lay at 6.7 nM.
